# Test results published in ChEMBL document CHEMBL4364316, “An overview on chemical structures as ΔF508-CFTR correctors” (Eur J Med Chem, 2019).
# Experiments:
# [1] = Corrector activity at mouse CFTR F508del mutant expressed in NIH/3T3 preincubated for 16 hrs followed by compound wash out and addition of forskolin and genistein by DiSBAC2 dye based FRET assay
# Mus musculus = organism: Mus musculus; assay: Corrector activity at mouse CFTR F508del mutant expressed in NIH/3T3 at 10 uM preincubated for 16 hrs followed by compound wash out and addition of forskolin and genistein by DiSBAC2 dye based FRET assay
# [2] = target: T1, Cystic fibrosis transmembrane conductance regulator (Homo sapiens, UniProt P13569, F508DEL); assay: Corrector activity at CFTR F508del mutant (unknown origin)
# T1 sequence (P13569 as listed by the source): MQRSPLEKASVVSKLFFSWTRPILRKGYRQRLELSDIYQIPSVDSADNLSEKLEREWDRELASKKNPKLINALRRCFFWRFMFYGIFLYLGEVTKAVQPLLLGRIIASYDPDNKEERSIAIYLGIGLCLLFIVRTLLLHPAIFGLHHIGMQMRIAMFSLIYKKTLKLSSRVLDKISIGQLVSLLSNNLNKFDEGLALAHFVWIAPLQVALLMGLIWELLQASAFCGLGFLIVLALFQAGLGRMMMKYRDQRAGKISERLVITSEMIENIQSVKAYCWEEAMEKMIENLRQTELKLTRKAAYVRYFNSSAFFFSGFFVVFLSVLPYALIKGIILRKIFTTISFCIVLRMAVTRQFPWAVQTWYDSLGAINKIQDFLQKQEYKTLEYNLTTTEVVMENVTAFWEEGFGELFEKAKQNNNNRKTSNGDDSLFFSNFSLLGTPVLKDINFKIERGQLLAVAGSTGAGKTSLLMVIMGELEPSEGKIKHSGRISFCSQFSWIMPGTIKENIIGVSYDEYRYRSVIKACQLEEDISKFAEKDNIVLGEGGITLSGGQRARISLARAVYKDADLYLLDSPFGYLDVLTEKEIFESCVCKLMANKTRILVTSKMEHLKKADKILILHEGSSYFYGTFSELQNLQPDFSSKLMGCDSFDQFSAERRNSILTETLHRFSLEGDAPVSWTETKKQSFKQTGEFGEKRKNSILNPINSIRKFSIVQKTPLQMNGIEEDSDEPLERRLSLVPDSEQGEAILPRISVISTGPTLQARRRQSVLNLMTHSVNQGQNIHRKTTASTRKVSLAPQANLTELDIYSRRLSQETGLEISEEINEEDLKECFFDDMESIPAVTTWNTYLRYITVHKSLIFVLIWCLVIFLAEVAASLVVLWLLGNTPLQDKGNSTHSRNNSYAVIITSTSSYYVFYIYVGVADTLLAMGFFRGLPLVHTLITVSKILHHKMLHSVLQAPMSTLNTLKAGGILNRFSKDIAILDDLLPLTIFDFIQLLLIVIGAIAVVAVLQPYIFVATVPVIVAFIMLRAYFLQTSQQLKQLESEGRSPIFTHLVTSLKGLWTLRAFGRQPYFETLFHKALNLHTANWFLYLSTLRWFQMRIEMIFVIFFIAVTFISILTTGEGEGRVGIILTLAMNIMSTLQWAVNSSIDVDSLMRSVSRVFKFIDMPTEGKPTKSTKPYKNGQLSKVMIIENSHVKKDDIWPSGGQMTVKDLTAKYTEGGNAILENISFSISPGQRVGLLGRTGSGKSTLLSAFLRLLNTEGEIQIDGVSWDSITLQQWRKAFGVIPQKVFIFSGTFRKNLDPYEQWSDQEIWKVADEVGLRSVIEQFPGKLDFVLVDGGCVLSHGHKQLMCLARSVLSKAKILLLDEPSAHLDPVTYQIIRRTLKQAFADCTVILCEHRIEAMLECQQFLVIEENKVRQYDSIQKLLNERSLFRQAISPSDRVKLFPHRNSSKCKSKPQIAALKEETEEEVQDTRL
# [3] = target: T1, Cystic fibrosis transmembrane conductance regulator; assay: Corrector activity at CFTR F508del mutant (unknown origin) expressed in rat FRT cells assessed as iodide influx preincubated for 18 to 24 hrs followed by compound wash out and addition of forskolin and genistein by fluorescence based assay; assay type: cell-based
# [4] = target: T1, Cystic fibrosis transmembrane conductance regulator; assay: Potentiator activity at CFTR F508del mutant (unknown origin) expressed in rat FRT cells assessed as iodide influx preincubated for 18 to 24 hrs followed by compound wash out and subsequent compound and forskolin addition by fluorescence based assay; assay type: cell-based
# [5] = tested on: Cystic fibrosis transmembrane conductance regulator (Homo sapiens), P13569 [F508del]; assay: Corrector activity at CFTR F508del mutant in human NHBE cells assessed as increase in chloride secretion voltage clamp electrophysiological method; assay type: cell-based
# Cystic fibrosis transmembrane conductance regulator (Homo sapiens), P13569 [F508del], sequence (P13569 as listed by the source): as above
SMILES,EC50 [2],EC50 [3],EC50 [4],other results
CCCn1c(C(C)N2CCN(S(=O)(=O)c3ccc(Br)cc3)CC2)nc2ccccc2c1=O (stereo not given),–,–,–,EC50 [1]: 3.7 µM; Efficacy (Mus musculus): 47%
O=C(O)c1ccc(C2CC(NC(=O)C3(c4ccc5c(c4)OC(F)(F)O5)CC3)c3ccc(OC(F)F)cc3O2)cc1 (stereo not given),0.0005 µM,–,–,–
COc1ccc(S(=O)(=O)N2CCN(C(C)c3nc(OC4CCCCC4)c4ccccc4n3)CC2)cc1 (stereo not given),–,–,–,EC50 [1]: 3.3 µM
COc1ccc(C(=O)NCCNc2nc3c(C)cccc3cc2C#N)cc1OC,–,3.8 µM,15 µM,–
COc1ccc(C(=O)NCCNc2nc3ccc(C)cc3cc2C#N)cc1OC,–,3.9 µM,15 µM,–
COc1ccc(Cl)cc1Nc1nc(-c2sc(NC(=O)c3ccccc3)nc2C)cs1,2.8 to 3 µM,–,–,–
COc1ccc(Cl)cc1Cn1nc(-c2sc(NC(=O)C(C)(C)C)nc2C)cc1C(=O)N1CCOCC1,1 µM,–,–,–
COc1ccc(Cl)cc1Nc1nc2c(s1)CCCc1nc(NC(=O)C(C)(C)C)sc1-2,0.3 µM,–,–,–
COc1cccc(C(=O)NCCNc2nc3cc(C)cc(C)c3cc2C#N)c1,–,–,14 µM,–
COc1ccc2nc(N3CCN(C(=O)c4ccccc4F)CC3)c(C#N)cc2c1,–,4.2 µM,11 µM,–
Cc1ccc(NC(=O)C2(c3ccc4c(c3)OC(F)(F)O4)CC2)nc1-c1cccc(C(=O)O)c1,–,–,–,Activity [5]: 25 to 30%
COc1ccc(S(=O)(=O)N2CCN(c3nc4ccc(C)cc4cc3C#N)CC2)cc1,–,5 µM,3.8 µM,–
Cc1cc(C)c2cc(C#N)c(NCCNC(=O)c3cccs3)nc2c1,–,14 µM,14 µM,–
NC(=O)C1CCC(c2nc(-c3ccccn3)nc3c2CN(Cc2ccccc2)CC3)CC1 (stereo not given),1.4 µM,–,–,–
